Data taken from patent US11019821B2, “Fused bicyclic heterocycle derivatives as pesticides” (Bayer Aktiengesellschaft, priority 2018, dated 2021).

Assays:
Myzus persicae [1] = assay: Myzus persicae oral test; format: in vivo; settings: 120 h, application rate 4 ppm, after 5 days, read-out: efficacy (aphids killed)
Method: To produce a suitable active ingredient formulation, 1 part by weight of active ingredient is dissolved with the stated parts by weight of solvent and made up to the desired concentration with water.
50 μl of the active ingredient preparation are transferred into microtitre plates and made up to a final volume of 200 μl with 150 μl of IPL41 insect medium (33%+15% sugar). Subselog Puently, the plates are sealed with parafilm, which a mixed population of green peach aphids (Myzus persicae) within a second microtitre plate is able to puncture and imbibe the solution.
(§1) After 5 days, the efficacy in % is determined. 100% means that all the aphids have been killed; 0% means that no aphids have been killed.

Phaedon cochleariae = Phaedon cochleariae spray test; format: in vivo; settings: application rate 100 g/ha, after 7 days, Chinese cabbage leaf discs
Method: (§2) To produce a suitable active ingredient formulation, 1 part by weight of active ingredient is dissolved with the specified parts by weight of solvent and made up to the desired concentration with water containing an emulsifier concentration of 1000 ppm. To produce further test concentrations, the formulation is diluted with emulsifier-containing water.
Discs of Chinese cabbage leaves (Brassica pekinensis) are sprayed with an active ingredient formulation of the desired concentration and, after drying, populated with larvae of the mustard beetle (Phaedon cochleariae).
After 7 days, the efficacy in % is determined. 100% means that all the beetle larvae have been killed; 0% means that no beetle larvae have been killed.

Spodoptera frugiperda = Spodoptera frugiperda spray test; format: in vivo; settings: application rate 100 g/ha, after 7 days, maize leaf discs
Method: as §2
Leaf discs of maize (Zea mays) are sprayed with an active ingredient formulation of the desired concentration and, after drying, populated with caterpillars of the armyworm (Spodoptera frugiperda).
After 7 days, the efficacy in % is determined. 100% means that all the caterpillars have been killed; 0% means that no caterpillar has been killed.

[2] = log P by HPLC on reversed-phase column, acidic range; format: physicochemical; settings: reversed-phase HPLC column (C 18); pH 2.7, 0.1% aqueous formic acid and acetonitrile, C 18 column, 55° C.; read-out: log P (HCOOH)
Method: The log P values are measured according to EEC Directive 79/831 Annex V.A8 by HPLC (high-performance lilog Puid chromatography) on a reversed-phase column (C 18). Temperature: 55° C.
The LC-MS determination in the acidic range is effected at pH 2.7 with 0.1% alog Pueous formic acid and acetonitrile (containing 0.1% formic acid) as eluents; linear gradient from 10% acetonitrile to 95% acetonitrile. Called log P (HCOOH) in the table.
Calibration is effected using unbranched alkan-2-ones (having 3 to 16 carbon atoms) with known log P values (log P values determined on the basis of the retention times by linear interpolation between two successive alkanones).

Ctenocephalides felis [3] = assay: Ctenocephalides felis oral test; format: in vivo; settings: application rate 100 ppm in citrated cattle blood, after 2 days, adult cat fleas
Method: (§3) Solvent: dimethyl sulfoxide
To produce a suitable active ingredient formulation, 10 mg of active ingredient are mixed with 0.5 ml of dimethyl sulfoxide. Dilution with citrated cattle blood gives the desired concentration.
About 20 unfed adult cat fleas (Ctenocephalides felis) are placed into a chamber which is closed at the top and bottom with gauze. A metal cylinder whose bottom end is closed with parafilm is placed onto the chamber. The cylinder contains the blood/active ingredient formulation, which can be imbibed by the fleas through the parafilm membrane.
After 2 days, the kill in % is determined. 100% means that all of the fleas have been killed; 0% means that none of the fleas have been killed.

Lucilia cuprina = Lucilia cuprina test; format: in vivo; settings: application rate 100 ppm, after 2 days, L1 larvae
Method: as §3
(§4) To produce a suitable active ingredient formulation, 10 mg of active ingredient are mixed with 0.5 ml of dimethyl sulfoxide, and the concentrate is diluted with water to the desired concentration.
About 20 L1 larvae of the Australian sheep blowfly (Lucilia cuprina) are transferred into a test vessel containing minced horsemeat and the active ingredient formulation of the desired concentration.
After 2 days, the kill in % is determined. 100% means that all the larvae have been killed; 0% means that no larvae have been killed.

Musca domestica = Musca domestica test; format: in vivo; settings: application rate 100 ppm, after 2 days, adult houseflies
Method: as §3, §4
Vessels containing a sponge treated with sugar solution and the active ingredient formulation of the desired concentration are populated with 10 adult houseflies (Musca domestica).
After 2 days, the kill in % is determined. 100% means that all of the flies have been killed; 0% means that none of the flies have been killed.

Myzus persicae [4] = assay: Myzus persicae spray test; format: in vivo; settings: foliar, 120 h, application rate 100 g/ha, after 5 days, Chinese cabbage leaf discs, read-out: efficacy (aphids killed)
Method: as §2
Discs of Chinese cabbage leaves (Brassica pekinensis) infested by all stages of the green peach aphid (Myzus persicae) are sprayed with an active ingredient formulation of the desired concentration.
as §1

Tetranychus urticae = Tetranychus urticae spray test, OP-resistant; format: in vivo; settings: application rate 100 g/ha, after 6 days, bean leaf discs
Method: as §2
Discs of bean leaves (Phaseolus vulgaris) infested with all stages of the greenhouse red spider mite (Tetranychus urticae) are sprayed with an active ingredient formulation of the desired concentration.
After 6 days, the efficacy in % is determined. 100% means that all the spider mites have been killed; 0% means that no spider mites have been killed.

Ctenocephalides felis [5] = assay: Ctenocephalides felis in vitro contact test with adult cat fleas; format: in vivo; settings: application rate 5 μg/cm^2 (=500 g/ha), after 48 h
Method: (§5) For the coating of the test tubes, 9 mg of active ingredient are first dissolved in 1 ml of acetone p.a. and then diluted to the desired concentration with acetone p.a. 250 μl of the solution are distributed homogeneously on the inner walls and the base of a 25 ml glass tube by turning and rocking on an orbital shaker (rocking rotation at 30 rpm for 2 h). With 900 ppm of active ingredient solution and internal surface area 44.7 cm^2, given homogeneous distribution, an area-based dose of 5 μg/cm^2 is achieved.
After the solvent has evaporated off, the tubes are populated with 5-10 adult cat fleas (Ctenocephalides felis), sealed with a perforated plastic lid and incubated in a horizontal position at room temperature and ambient humidity. After 48 h, efficacy is determined. To this end, the tubes are stood upright and the fleas are knocked to the base of the tube. Fleas which remain motionless at the base or move in an uncoordinated manner are considered to be dead or moribund.
100% efficacy means that all the fleas were dead or moribund. 0% efficacy means that no fleas were harmed.

Rhipicephalus sanguineus = Rhipicephalus sanguineus in vitro contact test with adult brown dog ticks; format: in vivo; settings: application rate 5 μg/cm^2 (=500 g/ha), after 48 h
Method: as §5, with “walls and base of” for “walls and the base of”, “25 ml test tube by” for “25 ml glass tube by”, “900 ppm active ingredient” for “900 ppm of active ingredient”, “internal surface 44.7 cm^2,” for “internal surface area 44.7 cm^2,”
After the solvent has evaporated off, the tubes are populated with 5-10 adult dog ticks (Rhipicephalus sanguineus), sealed with a perforated plastic lid and incubated in a horizontal position in the dark at room temperature and ambient humidity. After 48 h, efficacy is determined. To this end, the ticks are knocked to the floor of the tube and incubated on a hotplate at 45-50° C. for not more than 5 min. Ticks which remain motionless on the floor or move in such an uncoordinated manner that they are unable to deliberately avoid the heat by climbing upwards are considered to be dead or moribund.
100% efficacy means that all the ticks were dead or moribund. 0% efficacy means that none of the ticks had been harmed.

Boophilus microplus = Boophilus microplus injection test; format: in vivo; settings: application rate 20 μg/animal, assessed after 7 days, engorged adult female cattle ticks
Method: as §3
To produce a suitable active ingredient formulation, 10 mg of active ingredient are mixed with 0.5 ml of solvent and the concentrate is diluted to the desired concentration with solvent.
1 μl of the active ingredient solution is injected into the abdomen of 5 engorged adult female cattle ticks (Boophilus microplus). The animals are transferred into dishes and kept in a climate-controlled room.
Efficacy is assessed after 7 days by laying of fertile eggs. Eggs which are not visibly fertile are stored in a climate-controlled cabinet until the larvae hatch after about 42 days. An efficacy of 100% means that none of the ticks has laid any fertile eggs; 0% means that all the eggs are fertile.

Structure (SMILES) | pest or weed control at 4 ppm (Myzus persicae [1]) | efficacy (beetle larvae killed) (Phaedon cochleariae) | efficacy (caterpillars killed) (Spodoptera frugiperda) | chromatographic logP [2] | efficacy (kill in %) (Ctenocephalides felis [3]) | efficacy (kill in %) (Lucilia cuprina) | efficacy (kill in %) (Musca domestica) | pest or weed control at 100 g/ha (Myzus persicae [4]) | efficacy (spider mites killed) (Tetranychus urticae) | efficacy (fleas dead or moribund) (Ctenocephalides felis [5]) | efficacy (ticks dead or moribund) (Rhipicephalus sanguineus) | efficacy (no laying of fertile eggs) (Boophilus microplus)
CCS(=O)(=O)c1c(-c2nc3cc(C(F)(F)F)cnc3n2C)nn2c1CC(C(F)(F)F)CC2 (stereo not shown) [Example I-01, 2-[3-Ethylsulfonyl-5-(trifluoromethyl)-4,5,6,7-tetrahydropyrazolo[1,5-a]pyridin-2-yl]-3-methyl-6-(trifluoromethyl)imidazo[4,5-b]pyridine] | 100% | 100% | 100% | 3.21 |  |  |  |  |  |  |  | 
CCS(=O)(=O)c1c(-c2nc3cc(C(F)(F)F)ncc3n2C)nn2c1CCCC2 [Example I-02] | 100% |  |  |  | 90% | 100% | 80% | 90% |  |  |  | 
CCS(=O)(=O)c1c(-c2nc3cc(C(F)(F)F)ncc3n2C)nn2c1CC(C(F)(F)F)CC2 (stereo not shown) [Example I-04] | 100% |  |  |  |  |  |  | 100% | 100% |  |  | 
CCS(=O)(=O)c1c(-c2nc3cc(C(F)(F)F)ncc3n2C)nn2c1CC(C)CC2 (stereo not shown) [Example I-05] | 100% |  |  |  | 95% |  | 80% | 100% |  | 100% | 100% | 100%
CCS(=O)(=O)c1c(-c2nc3cc(C(F)(F)F)cnc3n2C)nn2c1CC(C)CC2 (stereo not shown) [Example I-10] | 100% |  |  |  |  |  |  | 90% | 90% |  |  | 
CCS(=O)(=O)c1c(-c2nc3cc(C(F)(F)C(F)(F)F)ncc3n2C)nn2c1CC(C)CC2 (stereo not shown) [Example I-13] | 100% |  | 100% |  | 100% |  |  | 90% | 100% |  |  | 100%
